“And” between values parts separate entries of the source, which are not always exact repeats. Equal entries are not always repeated. Strand notation (5' to 3'): a small letter for the sugar, then the base; units joined by * are phosphorothioate-linked, units joined directly phosphodiester-linked; [ ] holds rarer units or linkages, { } end groups; capitals alone tell only the bases. e = 2'-O-(2-methoxyethyl) (MOE); l = locked nucleic acid (LNA); k = constrained ethyl (cEt); [5mC] = 5-methylcytosine; d = 2'-deoxy (DNA)
Key:
[1] = system: collagen 1A1 and collagen 3A1 expression in kidney, unilateral ureteral obstruction (UUO) model; assay: UUO model of kidney fibrosis: kidney collagen 1A1 and collagen 3A1 expression by real-time PCR; type: in vivo, mice
Procedure: Unilateral ureteral obstruction (UUO) is a well-established experimental model of renal injury leading to interstitial fibrosis, and thus is used as an experimental model that is reflective of human kidney disease. UUO is induced by surgically ligating a single ureter. As fibrosis is characterized by an increase in collagen, the presence and extent of kidney fibrosis may be determined by measuring collagen content. Both collagen 1A1 (Col 1A1) and collagen 3A1 (Col 3A1) are measured to assess collagen content. Kidney fibrosis may be visualized by staining tissue samples with picro-sirius red to detect increases in collagen content. Kidney fibrosis may also be observed by measuring the amount of hydroxyproline, which is a major component of collagen, in a sample.
The cEt-containing anti-miR-21 compounds found to be active in the luciferase assay were tested in the UUO model of kidney fibrosis. 25919 comprising 2′-MOE and 2′-fluoro modifications is known to inhibit miR-21 activity in vivo and was included as a positive control. Groups of 8 animals each were treated as follows: UUO only, UUO with PBS, or UUO with anti-miR-21 compound. Relative to the day of the UUO procedure, PBS or anti-miR-21 compound was administered at days −3, −1, and +5. Anti-miR-21 compounds were administered at a dose of 20 mg/kg. As the anti-miR compounds were administered prior to the UUO procedure, this dosing regimen is considered a prophylactic treatment. At day 11, animals were sacrificed and kidney was isolated for measurement of collagen expression. Collagen expression was measured by real-time PCR and normalized first to GAPDH and then to the sham control animals. […]

[2] = system: miR-21; assay: miR-21 luciferase sensor assay in Hela cells; type: cell-based; details: for luciferase value normalized to beta-galactosidase activity / inhibition of miR-21 in the luciferase assay (in words): Hela cells
Procedure: The compounds were assessed for miR-21 inhibitory activity in a luciferase assay. A microRNA luciferase sensor construct was engineered using pGL3-MCS2 (Promega). The construct was introduced into Hela cells to test the ability of anti-miR compounds to inhibit activity of miR-21. In this assay, miR-21 present in the Hela cells binds to its cognate site(s) in the luciferase sensor construct, and suppresses luciferase expression. When the appropriate anti-miR is introduced into the cells, it binds to miR-21 and relieves suppression of luciferase expression. Thus, in this assay anti-miRs that are effective inhibitors of miR-21 expression will cause an increase in luciferase expression.
Day 1: Hela cells (ATCC), stably transfected with a luciferase construct engineered to contain a sequence complementary of miR-21, were seeded in T-170 flasks (BD Falcon) at 3.5*10^6 cells/flask. Hela cells were grown in Dulbecco's Modified Eagle Medium with High Glucose (Invitrogen).
Day 2: Each flask of Hela cells was transfected with 0.5 ug of a phRL sensor plasmid (Promega) expressing Renilla to be used in normalization. Hela cells were transfected using 20 ul Lipofectamine 2000/flask (Invitrogen). After 4 hours of transfection, cells were washed with PBS and trypsinized. Hela cells were plated at 40 k/well in 24 well plates (BD Falcon) and left overnight.
Day 3: Hela cells were transfected with anti-miRs using Lipofectin (Invitrogen) at 2.5 ul Lipofectin/100 nM ASO/ml Opti-MEM I Reduced Serum Medium (Invitrogen) for 4 hours. After ASO transfection, Hela cells were refed with Dulbecco's Modified Eagle Medium with High Glucose (Invitrogen).
Day 4: Hela cells are passively lysed and luciferase activity measured using the Dual-Luciferase Reporter Assay System (Promega).
The luciferase assay was performed to test the ability of anti-miRs with the nucleoside patterns described herein to inhibit the activity of miR-21. Results were compared to a ‘mock’ treatment, in which cells received no anti-miR treatment. The experiment was repeated and results of two experimental replicates are shown in the following Table B, as the luciferase value normalized to beta-galactosidase activity.
The luciferase assay was performed as described herein to test the ability of anti-miRs in Table F to inhibit the activity of miR-21. Results were compared to a ‘mock’ treatment, in which cells received no anti-miR treatment. The experiment was repeated and results of two experimental replicates are shown in the following Table D, as fold change in luciferase value relative to the mock treatment.

[3] = 4 nM oligonucleotide, mock transfection 50
[4] = 20 nM oligonucleotide, mock transfection 47
[5] = .16 nM oligonucleotide, mock transfection 45
[6] = .8 nM oligonucleotide, mock transfection 33
[7] = UUO, 20 mg/kg at days -3, -1, +5 (prophylactic), kidney at day 11, real-time PCR normalized to GAPDH then sham, 20 mg/kg
[8] = concentration of anti-miR compound 0.2 (unit not given)
[9] = concentration of anti-miR compound 0.6 (unit not given)
[10] = concentration of anti-miR compound 1.9 (unit not given)
[11] = concentration of anti-miR compound 5.6 (unit not given)
[12] = concentration of anti-miR compound 16.7 (unit not given)
[13] = concentration of anti-miR compound 50.0 (unit not given)
[14] = 100 nM oligonucleotide, mock transfection 40
[15] = 500 nM oligonucleotide, mock transfection 39

Compound | luciferase value normalized to beta-galactosidase activity [2, 3] | luciferase value normalized to beta-galactosidase activity [2, 4] | luciferase value normalized to beta-galactosidase activity [2, 5] | luciferase value normalized to beta-galactosidase activity [2, 6] | inhibition of miR-21 in the luciferase assay (in words) [2] | fold change in luciferase value relative to the mock treatment [2, 8] | fold change in luciferase value relative to the mock treatment [2, 9] | fold change in luciferase value relative to the mock treatment [2, 10] | fold change in luciferase value relative to the mock treatment [2, 11] | fold change in luciferase value relative to the mock treatment [2, 12] | fold change in luciferase value relative to the mock treatment [2, 13] | luciferase value normalized to beta-galactosidase activity [2, 14] | luciferase value normalized to beta-galactosidase activity [2, 15] | also measured
CCCCC1=NC2(CCCC2)C(=O)N1Cc1ccc(-c2ccccc2-c2nnn[nH]2)cc1 [irbesartan, reference compound] |  |  |  |  |  |  |  |  |  |  |  |  |  | reduction in Col3a1 expression (in words) ([1]; UUO comparison with irbesartan, 25070 s.c. 20 mg/kg days -5, -2, +3, irbesartan perorally daily days 0-7, day 10): statistically significant reductions; reduction in Col1A1 expression relative to saline-treated animals (in words) ([1]; UUO comparison with irbesartan, 25070 s.c. 20 mg/kg days -5, -2, +3, irbesartan perorally daily days 0-7, day 10, p<0.05 one-way ANOVA): did not yield a statistically significant reduction
AECSAETECSAEGETECSTEGEAEUSAEAEGECSTEAE (ACATCAGTCTGATAAGCTA; S-cEt/2'-MOE, phosphorothioate, chemistry not fully specified) [Compound 25072] | 76 | 86 | 40 | 49 | demonstrated inhibition of miR-21 in a dose-dependent manner |  |  |  |  |  |  |  |  | Collagen 1A1 (Normalized Expression), individual animal [1, 7]: 96.2 and 85.7 and 127.4 and 100.0 and 159.2 and 120.5 and 108.0; Collagen 3A1 (Normalized Expression), individual animal [1, 7]: 69.4 and 54.5 and 58.8 and 69.2 and 93.8 and 65.8 and 46.9; reduction in collagen expression (in words) ([1]; meta-analysis of repeated UUO studies, 20 mg/kg at days -3, -1, +5): did not consistently demonstrate a reduction in collagen expression
AE^MeCLAETE^MeCLAEGETE^MeCLTEGEAE^MeTLAEAEGE^MeCLTEAE (antisense eA*l[5mC]*eA*eT*l[5mC]*eA*eG*eT*l[5mC]*eT*eG*eA*lT*eA*eA*eG*l[5mC]*eT*eA) [Compound 25117, LNA variant: each non-bicyclic nucleoside is 2'-MOE, each cytosine 5-methyl cytosine] |  |  |  |  |  | 1.05 | 1.15 | 1.14 | 3.64 | 7.36 | 2.91 |  |  | 
AE^MeCSAETE^MeCSAEGETE^MeCSTEGEAE^MeTSAEAEGE^MeCSTEAE (antisense eA*k[5mC]*eA*eT*k[5mC]*eA*eG*eT*k[5mC]*eT*eG*eA*kT*eA*eA*eG*k[5mC]*eT*eA; further chemistry not given here) [Compound 25116, 25070 variant: each non-bicyclic nucleoside is 2'-MOE, each cytosine 5-methyl cytosine] |  |  |  |  |  | 1.06 | 0.98 | 1.06 | 2.47 | 5.64 | 1.98 |  |  | 
AE^MeCSAT^MeCSAGT^MeCSTGATSAAG^MeCSTAE (antisense ACATCAGTCTGATAAGCTA; modified nucleosides coded in name, code key not given here) [Compound 25922, 25070 variant: each cytosine is a 5-methyl cytosine] |  |  |  |  | demonstrated inhibition of miR-21 in a dose-dependent manner | 1.02 | 1.10 | 1.34 | 8.81 | 11.60 | 11.46 |  |  | 
AE^MeCSAT^MeCSAGT^MeCSTGATSAAG^MeCSTAS (antisense eA*k[5mC]*dA*dT*k[5mC]*dA*dG*dT*k[5mC]*dT*dG*dA*kT*dA*dA*dG*k[5mC]*dT*kA) [Compound 25924, 25070 variant: 3'-terminal cEt nucleoside and each cytosine is a 5-methyl cytosine] |  |  |  |  | demonstrated inhibition of miR-21 in a dose-dependent manner | 1.10 | 1.25 | 1.37 | 7.80 | 13.01 | 8.99 |  |  | 
AeTe^MeCeASGSTe^MeCeTeGSASTeAeASGS^MeCeTeAe [Compound 25077] | 45 | 33 | 34 | 33 |  |  |  |  |  |  |  | 42 | 40 | 
AeTe^MeCeAeGeTe^MeCeTeGSAsTeASASGe^MeCeUSAS [Compound 25731] | 32 | 39 | 34 | 45 |  |  |  |  |  |  |  | 38 | 59 | 
Ae^MeCAST^MeCAGST^MeCTGASTASAGS^MeCTAe (ACATCAGTCTGATAAGCTA; all C 5-methyl, all phosphorothioate, sugars by position not given here; further chemistry not fully specified) [Compound 25071] | 50 | 63 | 48 | 36 |  |  |  |  |  |  |  | 53 | 42 | 
Te^MeCASA^MeCAST^MeCAGST^MeCTGASTAAGS^MeCTAe (antisense TCAACATCAGTCTGATAAGCTA; all C 5-methyl, all phosphorothioate, sugars by position not given here; further chemistry not fully specified) [Compound 25067] | 43 | 41 | 38 | 23 |  |  |  |  |  |  |  | 30 | 42 | 

From patent publication US9790496B2, “Microrna compounds and methods for modulating MIR-21 activity” (Regulus Therapeutics, Inc., priority 2011, dated 2017)
